17 compounds from patent publication US7615643B2 (SmithKline Beecham Corporation, priority 2006, dated 2009) can be followed below.

Where a name gives a salt, the structure may show the parent alone.

The target of the experiment is T1, PLK1 (Homo sapiens, UniProt P53350).
T1 construct: PLK kinase domain (amino acids 21-346 preceded by MKKGHHHHHHD); made in house; host or cells: baculovirus infected T. ni cells
T1 sequence (P53350 21-346): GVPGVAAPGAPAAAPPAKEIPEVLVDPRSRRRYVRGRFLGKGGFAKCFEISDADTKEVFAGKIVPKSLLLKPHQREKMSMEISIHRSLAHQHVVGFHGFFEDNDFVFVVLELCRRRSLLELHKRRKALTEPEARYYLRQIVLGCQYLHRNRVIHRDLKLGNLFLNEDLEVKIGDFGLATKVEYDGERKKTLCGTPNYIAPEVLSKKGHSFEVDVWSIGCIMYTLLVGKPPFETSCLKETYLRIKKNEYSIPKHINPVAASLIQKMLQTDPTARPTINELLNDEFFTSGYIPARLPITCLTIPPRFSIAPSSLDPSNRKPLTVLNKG
Kind of experiment: Assay for inhibition of PLK1 (SPA kinase assay). Format: biochemical. As to conditions: 1 μM ATP, 2 nM PLK1 kinase domain, read-out: PLK1 pIC50 (converted). The essentials:
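His-tagged PLK1 kinase domain (aa 21-346, baculovirus/T. ni) at 2 nM with 1 μM ATP plus 33P-γ-ATP and 1 μM biotinylated peptide in 25 mM HEPES pH 7.2, 15 mM MgCl2, 1 mM DTT, 0.15 mg/mL BSA; 1-1.5 h at 22° C. Streptavidin SPA capture read; percent inhibition versus DMSO, EDTA background.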
As for `C[C@@H](Oc1cc(-n2cnc3ccc(CS(C)(=O)=O)cc32)sc1C(N)=O)c1cccc(OC2CCNCC2)c1Cl` [Example 54, 3-({(1R)-1-[2-Chloro-3-(4-piperidinyloxy)phenyl]ethyl}oxy)-5-{6-[(methylsulfonyl)methyl]-1H-benzimidazol-1-yl}-2-thiophenecarboxamide], the IC50 is < 100 nM. Regarding `C[C@@H](Oc1cc(-n2cnc3cc(-c4cnn(C)c4)ccc32)sc1C(N)=O)c1cccc(OC2CCNCC2)c1Cl` [Example 47, 3-({(1R)-1-[2-Chloro-3-(4-piperidinyloxy)phenyl]ethyl}oxy)-5-[5-(1-methyl-1H-pyrazol-4-yl)-1H-benzimidazol-1-yl]-2-thiophenecarboxamide], the IC50 was < 100 nM. For the compound `C[C@@H](Oc1cc(-n2cnc3cc(Br)ccc32)sc1C(N)=O)c1cccc(OC2CCN(C)CC2)c1Cl` [Example 51, 5-(5-Bromo-1H-benzimidazol-1-yl)-3-[((1R)-1-{2-chloro-3-[(1-methyl-4-piperidinyl)oxy]phenyl}ethyl)oxy]-2-thiophenecarboxamide], the IC50 is < 100 nM. For the compound `C[C@@H](Oc1cc(-n2cnc3cc(Cl)c(Cl)cc32)sc1C(N)=O)c1cccc(OC2CCNCC2)c1Cl` [Example 71, 3-({(1R)-1-[2-Chloro-3-(4-piperidinyloxy)phenyl]ethyl}oxy)-5-(5,6-dichloro-1H-benzimidazol-1-yl)-2-thiophenecarboxamide], the IC50 was < 100 nM. In the case of `C[C@@H](Oc1cc(-n2cnc3cc(-c4cnn(C)c4)ccc32)sc1C(N)=O)c1ccc(F)c(OC2CCNCC2)c1Cl` [Example 33, 3-({(1R)-1-[2-Chloro-4-fluoro-3-(4-piperidinyloxy)phenyl]ethyl}oxy)-5-[5-(1-methyl-1H-pyrazol-4-yl)-1H-benzimidazol-1-yl]-2-thiophenecarboxamide], the IC50 is < 100 nM. For the compound `CC(C)N1CCC(Oc2cccc([C@@H](C)Oc3cc(-n4cnc5cc(Cl)ccc54)sc3C(N)=O)c2Cl)CC1` [Example 24, 5-(5-Chloro-1H-benzimidazol-1-yl)-3-{[(1R)-1-(2-chloro-3-{[1-(1-methylethyl)-4-piperidinyl]oxy}phenyl)ethyl]oxy}-2-thiophenecarboxamide], the IC50 was < 100 nM. In the case of `C[C@@H](Oc1cc(-n2cnc3cc(Cl)c(F)cc32)sc1C(N)=O)c1cccc(OC2CCNCC2)c1Cl` [Example 67, 5-(5-Chloro-6-fluoro-1H-benzimidazol-1-yl)-3-({(1R)-1-[2-chloro-3-(4-piperidinyloxy)phenyl]ethyl}oxy)-2-thiophenecarboxamide], the IC50 was < 100 nM. Turning to `C[C@@H](Oc1cc(-n2cnc3cc(-c4cnn(C)c4)ccc32)sc1C(N)=O)c1ccc(F)c(OC2CCN(C)CC2)c1Cl` [Example 34, 3-[((1R)-1-{2-Chloro-4-fluoro-3-[(1-methyl-4-piperidinyl)oxy]phenyl}ethyl)oxy]-5-[5-(1-methyl-1H-pyrazol-4-yl)-1H-benzimidazol-1-yl]-2-thiophenecarboxamide trifluoroacetate], the IC50 was < 100 nM.

In the case of `C[C@@H](Oc1cc(-n2cnc3cc(Cl)ccc32)sc1C(N)=O)c1cccc(OC2CCN(CCO)CC2)c1Cl` [Example 20, 5-(5-Chloro-1H-benzimidazol-1-yl)-3-{[(1R)-1-(2-chloro-3-{[1-(2-hydroxyethyl)-4-piperidinyl]oxy}phenyl)ethyl]oxy}-2-thiophenecarboxamide], the IC50 was < 100 nM. Consider `CC(Oc1cc(-n2cnc3cc(-c4cnn(C)c4)ccc32)sc1C(N)=O)c1cccc(OC2CCN(C)CC2)c1F` (racemic) [Example 76, (+/−)-3-[(1-{2-Fluoro-3-[(1-methyl-4-piperidinyl)oxy]phenyl}ethyl)oxy]-5-[5-(1-methyl-1H-pyrazol-4-yl)-1H-benzimidazol-1-yl]-2-thiophenecarboxamide], for which the IC50 is < 100 nM. Turning to `COc1cc2ncn(-c3cc(O[C@H](C)c4cccc(OCCN5CCN(C)CC5)c4Cl)c(C(N)=O)s3)c2cc1OC` [Example 42, 5-[5,6-Bis(methyloxy)-1H-benzimidazol-1-yl]-3-{[(1R)-1-(2-chloro-3-{[2-(4-methyl-1-piperazinyl)ethyl]oxy}phenyl)ethyl]oxy}-2-thiophenecarboxamide], the IC50 is < 100 nM. Take `C[C@@H](Oc1cc(-n2cnc3ccccc32)sc1C(N)=O)c1cccc(OCCN2CCN(C)CC2)c1Cl` [Example 17, 5-(1H-benzimidazol-1-yl)-3-{[(1R)-1-(2-chloro-3-{[2-(4-methyl-1-piperazinyl)ethyl]oxy}phenyl)ethyl]ocy}-2-thiophenecarboxamide]: the IC50 was < 100 nM. On to `CC(Oc1cc(-n2cnc3cc(-c4cnn(C)c4)ccc32)sc1C(N)=O)c1cccc(OC2CCN(C)CC2)n1` (racemic) [Example 82, (+/−)-3-[(1-{6-[(1-Methyl-4-piperidinyl)oxy]-2-pyridinyl}ethyl)oxy]-5-[5-(1-methyl-1H-pyrazol-4-yl)-1H-benzimidazol-1-yl]-2-thiophenecarboxamide], for which the IC50 was < 100 nM.

In the case of `C[C@@H](Oc1cc(-n2cnc3cc(-c4cnn(C)c4)ccc32)sc1C(N)=O)c1cccc(OC2CCN(CCF)CC2)c1Cl` [Example 29, 3-{[(1R)-1-(2-Chloro-3-{[1-(2-fluoroethyl)-4-piperidinyl]oxy}phenyl)ethyl]oxy}-5-[5-(1-methyl-1H-pyrazol-4-yl)-1H-benzimidazol-1-yl]-2-thiophenecarboxamide], the IC50 is < 100 nM. Regarding `C[C@@H](Oc1cc(-n2cnc3ccc(Br)cc32)sc1C(N)=O)c1cccc(OC2CCN(C)CC2)c1Cl` [Example 6, 5-(6-Bromo-1H-benzimidazol-1-yl)-3-[((1R)-1-{2-chloro-3-[(1-methyl-4-piperidinyl)oxy]phenyl}ethyl)oxy]-2-thiophenecarboxamide], the IC50 was < 100 nM. As for `C[C@@H](Oc1cc(-n2cnc3cc(-c4cnn(C)c4)ccc32)sc1C(N)=O)c1cccc(OC2CCN(C)CC2)c1Cl` [Example 48, 3-[((1R)-1-{2-Chloro-3-[(1-methyl-4-piperidinyl)oxy]phenyl}ethyl)oxy]-5-[5-(1-methyl-1H-pyrazol-4-yl)-1H-benzimidazol-1-yl]-2-thiophenecarboxamide], the figure is < 100 nM; as for `C[C@@H](Oc1cc(-n2cnc3cc(-c4cnn(C)c4)ccc32)sc1C(N)=O)c1cccc(OCCN2CCOCC2)c1Cl` [Example 25, 3-{[(1R)-1-(2-chloro-3-{[2-(4-morpholinyl)ethyl]oxy}phenyl)ethyl]oxy}-5-[5-(1-methyl-1H-pyrazol-4-yl)-1H-benzimidazol-1-yl]-2-thiophenecarboxamide], < 100 nM.
